Test results: ChEMBL document CHEMBL5042524, “Discovery of Novel Histone Deacetylase 6 (HDAC6) Inhibitors with Enhanced Antitumor Immunity of Anti-PD-L1 Immunotherapy in Melanoma” (J Med Chem, 2022)
pIC50: −log10 of the molar value.

Key:
Histone deacetylase 3 = Histone deacetylase 3 (Homo sapiens, UniProt O15379); assay: Inhibition of recombinant human His-tagged HDAC3 expressed in baculovirus insect cells using Ac-Leu-Gly-Lys (Ac)-AMC as substrate preincubated for 5 mins followed by substrate addition and measured after 30 mins by fluorescence microtiter plate reader assay
[1] = biological target: T1, Protein deacetylase HDAC6 (Homo sapiens, UniProt Q9UBN7); assay: Inhibition of recombinant human N-terminal GST tagged HDAC6 expressed in baculovirus infected Sf9 insect cells using Ac-Leu-Gly-Lys (Ac)-AMC as substrate preincubated for 5 mins followed by substrate addition and measured after 30 mins by fluorescence microtiter plate reader assay
T1 sequence (Q9UBN7 whole entry): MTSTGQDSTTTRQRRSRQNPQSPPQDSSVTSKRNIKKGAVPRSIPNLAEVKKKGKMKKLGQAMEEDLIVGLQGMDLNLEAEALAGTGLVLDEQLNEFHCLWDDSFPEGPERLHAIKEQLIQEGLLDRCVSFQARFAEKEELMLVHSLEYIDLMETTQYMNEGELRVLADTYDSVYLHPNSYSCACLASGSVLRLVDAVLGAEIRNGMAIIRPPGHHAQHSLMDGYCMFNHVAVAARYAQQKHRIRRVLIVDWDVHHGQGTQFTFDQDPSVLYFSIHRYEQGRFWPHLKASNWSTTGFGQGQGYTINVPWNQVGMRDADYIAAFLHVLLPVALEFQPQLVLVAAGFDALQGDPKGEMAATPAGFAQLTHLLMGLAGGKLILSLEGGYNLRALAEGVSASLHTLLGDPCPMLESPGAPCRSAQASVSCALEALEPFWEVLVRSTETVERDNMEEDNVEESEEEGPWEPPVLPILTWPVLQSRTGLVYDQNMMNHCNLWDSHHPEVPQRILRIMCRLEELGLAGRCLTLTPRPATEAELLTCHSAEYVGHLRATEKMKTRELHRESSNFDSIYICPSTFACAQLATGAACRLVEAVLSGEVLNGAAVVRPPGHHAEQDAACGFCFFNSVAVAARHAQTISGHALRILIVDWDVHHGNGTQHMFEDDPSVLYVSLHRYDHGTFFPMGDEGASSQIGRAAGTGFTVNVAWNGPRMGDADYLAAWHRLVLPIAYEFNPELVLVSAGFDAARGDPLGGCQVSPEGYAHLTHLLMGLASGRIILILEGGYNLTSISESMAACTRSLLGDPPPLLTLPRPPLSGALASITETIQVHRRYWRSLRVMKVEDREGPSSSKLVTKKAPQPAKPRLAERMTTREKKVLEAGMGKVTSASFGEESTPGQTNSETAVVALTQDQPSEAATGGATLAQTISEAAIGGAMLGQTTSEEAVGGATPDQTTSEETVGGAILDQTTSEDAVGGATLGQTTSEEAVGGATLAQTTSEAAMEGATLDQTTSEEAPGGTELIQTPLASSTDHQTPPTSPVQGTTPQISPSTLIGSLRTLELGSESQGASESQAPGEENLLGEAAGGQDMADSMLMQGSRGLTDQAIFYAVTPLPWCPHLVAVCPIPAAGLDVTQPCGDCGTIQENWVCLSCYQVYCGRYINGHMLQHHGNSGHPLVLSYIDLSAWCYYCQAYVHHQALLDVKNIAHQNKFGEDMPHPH

Histone deacetylase = assay: Inhibition of HDAC in human HeLa nuclear extracts using fluorometric substrate incubated for 30 mins by fluorescence plate reader analysis; format: cell-based
A549 = assay: cells; format: functional, cell-based; conditions: Homo sapiens, A549, 48 h
Description: Antiproliferative activity against human A549 cells assessed as inhibition of cell proliferation measured after 48 hrs by MTT assay

[2] = Antiproliferative activity against human YCC-11 cells assessed as cell growth inhibition; format: functional, cell-based
HCT-116 = assay: cells; format: functional, cell-based; conditions: Homo sapiens, HCT-116, 48 h
Description: Antiproliferative activity against human HCT-116 cells assessed as inhibition of cell proliferation measured after 48 hrs by MTT assay

Histone deacetylase 8 = biological target: T2, Histone deacetylase 8 (Homo sapiens, UniProt Q9BY41); assay: Inhibition of full length recombinant human C-terminal His tagged HDAC8 expressed in baculovirus infected Sf9 insect cells using Ac-Leu-GlyLys (Tfa)-AMC as substrate preincubated for 5 mins followed by substrate addition and measured after 30 mins by fluorescence microtiter plate reader assay
T2 sequence (Q9BY41 whole entry): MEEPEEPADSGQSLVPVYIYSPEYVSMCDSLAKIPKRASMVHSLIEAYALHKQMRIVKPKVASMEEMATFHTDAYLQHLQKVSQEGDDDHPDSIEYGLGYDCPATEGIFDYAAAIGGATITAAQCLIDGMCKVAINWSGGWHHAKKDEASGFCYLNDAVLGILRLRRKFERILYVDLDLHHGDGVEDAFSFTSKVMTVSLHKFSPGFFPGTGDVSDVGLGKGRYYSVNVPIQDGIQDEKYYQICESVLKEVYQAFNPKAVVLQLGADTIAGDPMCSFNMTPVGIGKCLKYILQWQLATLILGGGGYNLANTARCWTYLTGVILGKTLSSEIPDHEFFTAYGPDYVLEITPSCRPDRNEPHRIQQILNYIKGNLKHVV

[3] = Cytotoxicity against human Jurkat cells assessed as reduction in cell viability incubated for 72 hrs by CCK-8 assay
B16-F10 = assay: cells; format: functional, cell-based; conditions: Mus musculus, B16-F10, 48 h
Description: Antiproliferative activity against mouse B16-F10 cells assessed as inhibition of cell proliferation measured after 48 hrs by MTT assay

[4] = Antiproliferative activity against human YCC3/7 cells assessed as cell growth inhibition; format: functional, cell-based
Histone deacetylase 1 = Histone deacetylase 1 (Homo sapiens, UniProt Q13547); assay: Inhibition of recombinant human HDAC1 expressed in baculovirus expression system using Ac-Leu-Gly-Lys (Ac)-AMC as substrate preincubated for 5 mins followed by substrate addition and measured after 30 mins by fluorescence microtiter plate reader assay
MCF7 = assay: cells; format: functional, cell-based; conditions: Homo sapiens, MCF7, 48 h
Description: Antiproliferative activity against human MCF7 cells assessed as inhibition of cell proliferation measured after 48 hrs by MTT assay

Chain of Histone deacetylase 1 (Q13547 whole entry): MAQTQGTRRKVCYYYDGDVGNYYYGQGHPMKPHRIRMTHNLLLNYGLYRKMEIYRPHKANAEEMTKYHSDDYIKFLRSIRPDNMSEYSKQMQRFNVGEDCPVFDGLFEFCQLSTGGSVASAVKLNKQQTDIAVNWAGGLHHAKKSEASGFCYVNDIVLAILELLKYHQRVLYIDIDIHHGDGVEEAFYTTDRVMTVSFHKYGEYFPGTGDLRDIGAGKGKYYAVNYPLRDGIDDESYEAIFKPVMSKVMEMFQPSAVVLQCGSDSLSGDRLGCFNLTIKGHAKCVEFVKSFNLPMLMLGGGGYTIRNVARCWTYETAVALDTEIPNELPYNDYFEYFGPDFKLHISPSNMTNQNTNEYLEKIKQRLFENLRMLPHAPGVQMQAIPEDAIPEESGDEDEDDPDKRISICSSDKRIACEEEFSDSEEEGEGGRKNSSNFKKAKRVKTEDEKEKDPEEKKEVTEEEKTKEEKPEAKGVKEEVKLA
Chain of Histone deacetylase 3 (O15379 whole entry): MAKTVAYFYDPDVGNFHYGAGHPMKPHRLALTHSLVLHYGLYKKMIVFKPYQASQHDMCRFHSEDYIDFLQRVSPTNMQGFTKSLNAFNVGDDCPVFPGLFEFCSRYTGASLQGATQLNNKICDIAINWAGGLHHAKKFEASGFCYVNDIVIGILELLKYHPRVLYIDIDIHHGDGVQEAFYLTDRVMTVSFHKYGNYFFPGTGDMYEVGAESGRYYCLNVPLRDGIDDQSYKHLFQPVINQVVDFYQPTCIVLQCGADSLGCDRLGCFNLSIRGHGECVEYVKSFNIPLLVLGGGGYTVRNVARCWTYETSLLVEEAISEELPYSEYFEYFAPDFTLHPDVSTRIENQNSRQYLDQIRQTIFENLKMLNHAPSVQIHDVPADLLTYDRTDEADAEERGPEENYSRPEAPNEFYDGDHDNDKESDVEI

| pIC50 (Histone deacetylase 3) | pIC50 [1] | IC50 (Histone deacetylase) [µM] | pIC50 (A549) | pIC50 (HCT-116) | pIC50 (Histone deacetylase 8) | pIC50 (B16-F10) | pIC50 (Histone deacetylase 1) | pIC50 (MCF7) | Structure (SMILES) | pIC50 [2] | IC50 at 72 h [3] [µM] | pIC50 [4] |
| --- | --- | --- | --- | --- | --- | --- | --- | --- | --- | --- | --- | --- |
| < 5.00 | 6.21 | 0.71 |  |  |  |  |  |  | COc1ccc(-c2ncc(C(=O)NCCCCCCC(=O)NO)s2)cc1 |  |  |  |
| 5.75 | < 5.00 | 0.71 |  |  |  |  |  |  | COc1ccc(-c2ncc(/C=C/C(=O)Nc3ccccc3N)s2)cc1 |  |  |  |
| 5.04 | 6.12 | 0.79 |  |  |  |  |  |  | COc1cc(OC)cc(-c2ncc(C(=O)NCCCCCCC(=O)NO)s2)c1 |  |  |  |
| < 5.00 | 6.10 | 0.67 |  |  |  |  |  |  | COc1cc(-c2ncc(C(=O)NCCCCCCC(=O)NO)s2)cc(OC)c1OC |  |  |  |
| 5.31 | 5.02 | 0.58 | 5.12 | 5.41 | 4.87 | < 5.00 | 4.87 | 5.22 | COc1cccc(-c2ncc(/C=C/C(=O)Nc3ccccc3N)s2)c1 | 5.07 | 0.56 | 5.00 |
| < 5.00 | 6.01 | 0.55 |  |  |  |  |  |  | O=C(/C=C/c1cnc(-c2ccc(N3CCOCC3)cc2)s1)NO |  |  |  |
|  |  | 0.73 |  |  |  |  |  |  | COc1ccc(-c2ncc(C(=O)NCCCC(=O)NO)s2)c(OC)c1 |  |  |  |
| 4.91 | 7.12 | 0.35 | 5.17 | 5.66 | 4.70 | 5.53 | 4.95 | 5.55 | COc1ccc(-c2ncc(C(=O)NCCCCCC(=O)NO)s2)c(OC)c1 | 5.19 | 1.72 | 5.06 |
| 5.21 | 5.96 | 0.11 | < 5.00 | 5.49 | 5.59 | < 5.00 | 5.30 | 5.32 | COc1ccc(-c2ncc(/C=C/C(=O)NO)s2)c(OC)c1OC | 5.42 | 0.59 | 5.09 |
| 5.00 | 6.21 | 0.69 |  |  |  |  |  |  | COc1ccc(-c2ncc(C(=O)NCCCCC(=O)NO)s2)c(OC)c1 |  |  |  |
|  |  |  |  |  |  |  |  |  | Nc1ccccc1NC(=O)c1ccc(CNC(=O)OCc2cccnc2)cc1 [ENTINOSTAT] | 5.26 |  | 4.89 |
| 5.99 | < 5.00 | 0.66 |  |  |  |  |  |  | Cc1ccc(-c2ncc(/C=C/C(=O)Nc3ccccc3N)s2)cc1 |  |  |  |
| 5.23 | 7.17 | 0.29 | < 5.00 | 5.54 | 5.28 | < 5.00 | 5.03 | < 5.00 | CC(C)(C)OC(=O)Nc1ccc(-c2ncc(C(=O)NCCCCCCC(=O)NO)s2)cc1 | 5.68 | 1.34 | 4.99 |
|  |  | 0.8 |  |  |  |  |  |  | O=C(CCCCCCNC(=O)c1cnc(-c2ccc(Oc3ccccc3)cc2)s1)NO |  |  |  |
| 5.29 | 6.04 | 0.13 | < 5.00 | 5.39 | 5.43 | < 5.00 | 5.36 | 5.27 | COc1ccc(-c2ncc(/C=C/C(=O)NO)s2)cc1 | 5.51 | 0.74 | 5.38 |
|  |  | 0.94 |  |  |  |  |  |  | O=C(/C=C/c1cnc(-c2ccc(F)cc2F)s1)NO |  |  |  |

| pIC50 (Histone deacetylase 3) | pIC50 [1] | IC50 (Histone deacetylase) [µM] | pIC50 (A549) | pIC50 (HCT-116) | pIC50 (Histone deacetylase 8) | pIC50 (B16-F10) | pIC50 (Histone deacetylase 1) | pIC50 (MCF7) | Structure (SMILES) | pIC50 [2] | IC50 at 72 h [3] [µM] | pIC50 [4] |
| --- | --- | --- | --- | --- | --- | --- | --- | --- | --- | --- | --- | --- |
| 5.12 | 5.68 | 0.1 | 5.51 | 5.74 | 5.65 | 5.29 | 5.49 | 5.89 | COc1cc(-c2ncc(/C=C/C(=O)NO)s2)cc(OC)c1OC | 5.32 | 0.36 | 5.29 |
| 5.69 | < 5.00 | 0.63 |  |  |  |  |  |  | Nc1ccccc1NC(=O)/C=C/c1cnc(-c2ccc3cc[nH]c3c2)s1 |  |  |  |
| 5.65 | 5.06 | 0.53 | 5.28 | 5.74 | 4.94 | 5.20 | 4.98 | 5.52 | COc1ccc(-c2ncc(/C=C/C(=O)Nc3ccccc3N)s2)cc1OC | 5.34 | 0.34 | 5.20 |
|  |  | 0.81 |  |  |  |  |  |  | Cc1cccc(-c2ncc(/C=C/C(=O)Nc3ccccc3N)s2)c1 |  |  |  |
| < 5.00 | 6.11 | 0.68 |  |  |  |  |  |  | O=C(/C=C/c1cnc(-c2ccc3c(c2)OCCO3)s1)NO |  |  |  |
| 5.19 | 6.19 | 0.27 | 5.30 | 6.04 | 4.99 | < 5.00 | 5.29 | 5.71 | COc1ccccc1-c1ncc(C(=O)NCCCCCCC(=O)NO)s1 | 5.57 | 0.35 | 5.18 |
|  |  | 1.02 |  |  |  |  |  |  | O=C(CCCCCCNC(=O)c1cnc(-c2ccc(F)cc2)s1)NO |  |  |  |
| < 5.00 | 6.03 | 0.72 |  |  |  |  |  |  | COc1cc(OC)cc(-c2ncc(/C=C/C(=O)NO)s2)c1 |  |  |  |
| 5.53 | 5.03 | 0.08 | < 5.00 | 5.78 | 4.85 | 5.12 | 5.01 | 5.60 | COc1cc(-c2ncc(/C=C/C(=O)Nc3ccccc3N)s2)cc(OC)c1OC | 5.78 | 0.58 | 5.52 |
|  |  | 0.89 |  |  |  |  |  |  | O=C(/C=C/c1cnc(-c2ccc3c(c2)OCO3)s1)NO |  |  |  |
|  |  | 0.96 |  |  |  |  |  |  | O=C(CCCCCCNC(=O)c1cnc(-c2ccc(Cl)cc2)s1)NO |  |  |  |
| 5.03 | 6.23 | 0.44 | 5.22 | 6.03 | 4.82 | 5.45 | 5.41 | 5.72 | COc1cccc(-c2ncc(C(=O)NCCCCCCC(=O)NO)s2)c1 | 5.89 | 0.33 | 5.81 |
| 5.09 | 6.15 | 0.7 |  |  |  |  |  |  | O=C(CCCCCCNC(=O)c1cnc(-c2ccc(OC(F)(F)F)cc2)s1)NO |  |  |  |
| 5.81 | < 5.00 | 0.63 |  |  |  |  |  |  | COc1ccc(-c2ncc(/C=C/C(=O)Nc3ccccc3N)s2)c(OC)c1OC |  |  |  |
|  |  | 0.66 |  |  |  |  |  |  | COc1cccc(-c2ncc(/C=C/C(=O)NO)s2)c1 |  |  |  |
